Measurements: PubChem BioAssay (NCI)
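Step 1: Grow cells in 96-well plates. Step 2: Expose to compound for 48 hours at 5 concentrations. Step 3: Interpolate endpoints linearly; if unreached, use highest concentration. TGI is the concentration that stops growth completely.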

How the values were obtained:
Assay in all cases: growth of human tumour cells (NCI), 48 h
786-0 renal = system: 786-0 renal
EKVX NSCLC = system: EKVX NSCLC
HCT-116 colon = system: HCT-116 colon
HL-60(TB) leukemia = system: HL-60(TB) leukemia
HT29 colon = system: HT29 colon
IGROV1 ovarian = system: IGROV1 ovarian
M14 melanoma = system: M14 melanoma
MALME-3M melanoma = system: MALME-3M melanoma
MCF7 breast = system: MCF7 breast
MDA-N = system: MDA-N
NCI-H522 lung = system: NCI-H522 lung
OVCAR-3 ovarian = system: OVCAR-3 ovarian
OVCAR-5 ovarian = system: OVCAR-5 ovarian
RPMI-8226 leukemia = system: RPMI-8226 leukemia
RXF 393 renal = system: RXF 393 renal
SF-295 CNS = system: SF-295 CNS
SR leukemia = system: SR leukemia
MDA-MB-231 breast = system: MDA-MB-231 breast

Row | SMILES | TGI (786-0 renal) [µM] | TGI (EKVX NSCLC) [µM] | TGI (HCT-116 colon) [µM] | TGI (HL-60(TB) leukemia) [µM] | TGI (HT29 colon) [µM] | TGI (IGROV1 ovarian) [µM] | TGI (M14 melanoma) [µM] | TGI (MALME-3M melanoma) [µM] | TGI (MCF7 breast) [µM] | TGI (MDA-N) [µM] | TGI (NCI-H522 lung) [µM] | TGI (OVCAR-3 ovarian) [µM] | TGI (OVCAR-5 ovarian) [µM] | TGI (RPMI-8226 leukemia) [µM] | TGI (RXF 393 renal) [µM] | TGI (SF-295 CNS) [µM] | TGI (SR leukemia) [µM] | TGI (MDA-MB-231 breast) [µM]
1 | CC(=O)OCc1cccc(O)c1C(=O)CCC=C(C)C | > 100 | > 100 | > 100 | > 100 | > 100 | > 100 | > 100 | > 100 | > 100 | > 100 | 56.6 | > 100 | > 100 | > 100 | > 100 | > 100 | > 100 | –
2 | OC(c1ccc(F)cc1)C(F)(F)c1nc(-c2ccccc2)no1 (stereo unspecified) | 44.2 | 63.7 | 36.7 | 48.7 | 33.4 | > 100 | 32.7 | 35 | 50.3 | 62.7 | > 100 | 30.6 | 35.6 | – | – | – | – | 42.8
3 | c1ccc2c(c1)ccc1ncccc12 | > 100 | > 100 | > 100 | > 100 | > 100 | > 100 | > 100 | > 100 | > 100 | – | > 100 | > 100 | > 100 | > 100 | > 100 | > 100 | > 100 | > 100
4 | CC(=O)O[C@H]1C(=O)[C@@]2(C)[C@H]([C@H](OC(=O)c3ccccc3)[C@]3(O)C[C@H](OC(=O)[C@H](O)[C@@H](NC(=O)c4ccccc4)C4CCCCC4)C(C)=C1C3(C)C)[C@]1(OC(C)=O)CO[C@@H]1C[C@@H]2O | > 100 | > 100 | > 44.9 | < 0.01 | 17.5 | > 61.3 | 24 | 95 | 25.9 | – | 0.011 | < 0.01 | 0.673 | 19.2 | 0.013 | 0.0606 | 25.1 | 28.6
5 | O/N=C(\C=N\O)c1ccc2c(c1)Sc1ccccc1O2 | 38.6 | 48.9 | 45.7 | 59.8 | 49.7 | – | 39.6 | 72.5 | 40.6 | – | 8.17 | 48.8 | 87.5 | 38.9 | 36 | 46.3 | 75.9 | 38.4
6 | COc1cc(C2SCC(=O)N2c2ccc(-c3ccc(-n4c(-c5ccccc5)nc5ccccc5c4=O)cc3)cc2)ccc1O (stereo unspecified) | > 100 | > 100 | > 100 | > 100 | > 100 | > 100 | > 100 | > 100 | > 100 | > 100 | > 100 | > 100 | > 100 | > 100 | – | > 100 | – | > 100
7 | Cc1ccc(S(=O)(=O)c2c(N)c3nccn3c3nc4ccccc4nc23)cc1 | > 100 | > 100 | > 100 | > 100 | – | > 100 | > 100 | > 100 | – | – | > 100 | > 100 | > 100 | > 100 | – | – | > 100 | –
8 | Cc1ccc(C2(C)NC(=S)N(NC(N)=S)C2=S)cc1 (stereo unspecified) | > 100 | > 100 | > 100 | > 100 | – | > 100 | > 100 | > 100 | – | – | – | > 100 | – | > 100 | > 100 | > 100 | > 100 | –
9 | CC1(C)CC(=O)C(CC(C(=O)C(=O)Nc2cc(C(F)(F)F)ccc2Cl)C(=O)c2ccco2)C(=O)C1 (stereo unspecified) | > 100 | > 100 | > 100 | > 100 | > 100 | > 100 | > 100 | > 100 | > 100 | > 100 | > 100 | > 100 | > 100 | > 100 | – | > 100 | – | > 100
10 | CCN(CC)CCCC(C)NC(=O)c1cc(-c2nccn2C)nc2ccc(C)cc12 (stereo unspecified) | > 100 | > 100 | > 100 | > 100 | > 100 | > 100 | > 100 | > 100 | > 100 | > 100 | – | – | > 100 | > 100 | > 100 | – | – | > 100
11 | C=C1C(=O)OC2C[C@H](C)C3CC(=O)C(C)=C3CC12 (stereo partly specified) | 26.1 | 32.8 | 20.4 | 8.42 | 31 | 31.4 | 27.4 | 25.3 | – | – | 3.66 | 26.2 | 28.9 | 21.9 | 31.6 | > 62.3 | 22.3 | –
12 | O=C1C=C(c2c(-c3ccccc3)[nH]c3ccccc23)C(=O)N1c1ccccc1 | 21.1 | 38.5 | 19.6 | 24.1 | 29.7 | 51.4 | 30.4 | 23.9 | – | 15.7 | – | 15.8 | 33.3 | > 100 | 15.2 | 25.3 | – | 25.6
13 | Cc1c(/C=N/NC(=O)c2ccccc2)c(=O)n(-c2ccccc2)n1C | > 100 | > 100 | > 100 | > 100 | > 100 | > 100 | > 100 | > 100 | – | – | > 100 | > 100 | – | > 100 | > 100 | > 100 | > 100 | –
14 | O=C1NC2OCC(O)C(O1)C2O (stereo unspecified) | > 100 | > 100 | – | > 100 | > 100 | > 100 | > 100 | > 100 | – | – | > 100 | > 100 | > 100 | > 100 | > 100 | > 100 | > 100 | –
15 | Cc1nc2c(O)cccc2c(=O)[nH]1 | > 1000 | > 1000 | > 1000 | 471 | > 1000 | > 1000 | > 1000 | > 1000 | > 1000 | > 1000 | > 1000 | > 1000 | > 1000 | > 1000 | > 1000 | > 1000 | > 1000 | –
